Laboratory results from patent publication US20230247994A1, “HETEROCYCLENE DERIVATIVES AS PEST CONTROL AGENTS” (Bayer Aktiengesellschaft, priority 2020, published 2023).

Assays:
Type in all cases: in vivo
Diabrotica balteata = Diabrotica balteata spray test (germinated wheat grains); details: 168 h, application rate 100 g/ha (=32 μg/cavity), after 7 days, beetle larvae on wheat, 100% = all wheat plants grown as in untreated, uninfected control, read-out: efficacy in %
Text: Diabrotica Balteata—Spray Test Solvent: 78 parts by weight of acetone • • 1.5 parts by weight of dimethylformamide Emulsifier: alkylaryl polyglycol ether An appropriate active ingredient formulation is produced by dissolving 1 part by weight of active ingredient with the stated parts by weight of solvent and making the solution up to the desired concentration with water containing an emulsifier concentration of 1000 ppm. Further test concentrations are produced by diluting the formulation with emulsifier-containing water. Pre-swollen wheat grains (Triticum aestivum) are incubated in a multiwell plate filled with agar and a little water for one day (5 seed grains per cavity). The germinated wheat grains are sprayed with an active ingredient formulation of the desired concentration. Subsequently, each cavity is infected with 10-20 beetle larvae of Diabrotica balteata. After 7 days, efficacy in % is determined. 100% means that all wheat plants have grown as in the untreated, uninfected control; 0% means that no wheat plant has grown.

Spodoptera frugiperda = Spodoptera frugiperda spray test (maize leaf disks); details: foliar, 168 h, application rate 100 g/ha, caterpillars, after 7 days, 100% = all caterpillars killed, read-out: efficacy in %
Text: Spodoptera frugiuerda—Spray Test
Solvent: 78.0 parts by weight of acetone • • 1.5 parts by weight of dimethylformamide
Emulsifier: alkylaryl polyglycol ether
An appropriate active ingredient formulation is produced by dissolving 1 part by weight of active ingredient with the stated parts by weight of solvent and making the solution up to the desired concentration with water containing an emulsifier concentration of 1000 ppm. Further test concentrations are produced by diluting the formulation with emulsifier-containing water.
Leaf disks of maize (Zea mays) are sprayed with an active ingredient formulation of the desired concentration and, after drying, populated with caterpillars of the fall armyworm (Spodopterafrugiperda).
After 7 days, efficacy in % is determined. 100% means that all of the caterpillars have been killed; 0% means that none of the caterpillars have been killed.

Nezara viridula = Nezara viridula spray test (barley plants); details: 96 h, application rate 500 g/ha, larvae, after 4 days, 100% = all shield bugs killed, read-out: efficacy in %
Text: (§1) Nezara viridula—Spray Test Solvent: 78.0 parts by weight of acetone • • 1.5 parts by weight of dimethylformamide Emulsifier: alkylaryl polyglycol ether An appropriate active ingredient formulation is produced by dissolving 1 part by weight of active ingredient with the stated parts by weight of solvent and making the solution up to the desired concentration with water containing an emulsifier concentration of 1000 ppm. Further test concentrations are produced by diluting the formulation with emulsifier-containing water. Barley plants (Hordeum vulgare) are sprayed with an active ingredient formulation of the desired concentration and are infected with larvae of the Southern green shield bug (Nezara viridula). After 4 days, efficacy in % is determined. 100% means that all of the shield bugs have been killed; 0% means that none of the shield bugs have been killed.

Meloidogyne incognita = Meloidogyne incognita test (lettuce, gall formation); details: application rate 20 ppm, after 14 days, 100% = no galls found
Text: Meloidogyne Incognita Test Solvent: 125.0 parts by weight of acetone An appropriate active ingredient formulation is produced by mixing 1 part by weight of active ingredient with the stated amount of solvent and diluting the concentrate to the desired concentration with water. Vessels are filled with sand, active ingredient solution, an egg/larvae suspension of the southern root-knot nematode (Meloidogyne incognita) and lettuce seeds. The lettuce seeds germinate and the plants develop. The galls develop on the roots. After 14 days, the nematicidal efficacy in % is determined by the formation of galls. 100% means that no galls were found; 0% means that the number of galls on the treated plants corresponds to the untreated control.

Myzus persicae = Myzus persicae spray test (Chinese cabbage leaf disks); details: application rate 100 g/ha, after 5 days, 100% = all aphids killed
Text: as §1, with “Myzus persicae—Spray” for “Nezara viridula—Spray”, “78” for “78.0”, “Leaf disks of Chinese cabbage (Brassica pekinensis) infested by all stages of the green peach aphid (Myzus persicae)” for “Barley plants (Hordeum vulgare)”, “concentration.” for “concentration and are infected with larvae of the Southern green shield bug (Nezara viridula).”, “5” for “4”, “aphids” for “shield bugs”

`CCS(=O)(=O)c1c(-c2nc3cc4c(cc3n2C)OC(F)(F)C(F)(F)O4)nc(-c2cccc(C3(F)CC3)c2)n1C` [Example I-20, 2-{5-(Ethylsulfonyl)-2-[3-(1-fluorocyclopropyl)phenyl]-1-methyl-1H-imidazol-4-yl}-6,6,7,7-tetrafluoro-1-methyl-6,7-dihydro-1H-[1,4]dioxino[2,3-f]benzimidazole] showed a pest or weed control at 100 g/ha (Diabrotica balteata) of 100%, a pest or weed control at 100 g/ha (Spodoptera frugiperda) of 100% and a pest or weed control at 500 g/ha (Nezara viridula) of 90%.

With `CCS(=O)(=O)c1c(-c2nc3cc4c(cc3n2C)OC(F)(F)C(F)(F)O4)nc(-n2cnc(C3CC3)n2)n1C` [Example I-23, 2-[2-(3-Cyclopropyl-1H-1,2,4-triazol-1-yl)-5-(ethylsulfonyl)-1-methyl-1H-imidazol-4-yl]-6,6,7,7-tetrafluoro-1-methyl-6,7-dihydro-1H-[1,4]dioxino[2,3-f]benzimidazole] the pest or weed control at 100 g/ha (Diabrotica balteata) was 80%, the pest or weed control at 100 g/ha (Spodoptera frugiperda) was 100% and the pest or weed control at 500 g/ha (Nezara viridula) was 100%.

For `CCS(=O)(=O)c1c(-c2nc3cc4c(cc3n2C)OC(F)(F)C(F)(F)O4)nc(-c2ccc(C3(C#N)CC3)cc2)n1C` [Example I-6, 1-{4-[5-(Ethylsulfonyl)-1-methyl-4-(6,6,7,7-tetrafluoro-1-methyl-6,7-dihydro-1H-[1,4]dioxino[2,3-f]benzimidazol-2-yl)-1H-imidazol-2-yl]phenyl}cyclopropanecarbonitrile], the pest or weed control at 100 g/ha (Diabrotica balteata) was 100%, the pest or weed control at 100 g/ha (Spodoptera frugiperda) was 100% and the “nematicidal efficacy in % (formation of galls)” value (from here on “nematicidal efficacy in %”) (Meloidogyne incognita) was 100%. For the same molecule, the pest or weed control at 500 g/ha (Nezara viridula) was 100%.

Work on `CCS(=O)(=O)c1c(-c2nc3cc4c(cc3n2C)OC(F)(F)C(F)(F)O4)nc(-c2ccc(Br)cn2)n1C` [Example I-24, 2-[2-(5-Bromopyridin-2-yl)-5-(ethylsulfonyl)-1-methyl-1H-imidazol-4-yl]-6,6,7,7-tetrafluoro-1-methyl-6,7-dihydro-1H-[1,4]dioxino[2,3-f]benzimidazole] yielded a pest or weed control at 100 g/ha (Diabrotica balteata) of 100%, a pest or weed control at 100 g/ha (Spodoptera frugiperda) of 100% and a pest or weed control at 500 g/ha (Nezara viridula) of 100%.

Molecule `CCS(=O)(=O)c1c(-c2nc3cc4c(cc3n2C)OC(F)(F)C(F)(F)O4)nc(-c2ccc(C(F)(F)F)cc2)n1C` [Example I-15, 2-{5-(Ethylsulfonyl)-1-methyl-2-[4-(trifluoromethyl)phenyl]-1H-imidazol-4-yl}-6,6,7,7-tetrafluoro-1-methyl-6,7-dihydro-1H-[1,4]dioxino[2,3-f]benzimidazole] has a pest or weed control at 100 g/ha (Diabrotica balteata) of 100%, a pest or weed control at 100 g/ha (Spodoptera frugiperda) of 100% and a pest or weed control at 500 g/ha (Nezara viridula) of 100%.

For `CCS(=O)(=O)c1c(-c2nc3cc4c(cc3n2C)OC(F)(F)C(F)(F)O4)nc(-c2ccc(C3(F)CC3)cc2)n1C` [Example I-11, 2-{5-(Ethylsulfonyl)-2-[4-(1-fluorocyclopropyl)phenyl]-1-methyl-1H-imidazol-4-yl}-6,6,7,7-tetrafluoro-1-methyl-6,7-dihydro-1H-[1,4]dioxino[2,3-f]benzimidazole], the pest or weed control at 100 g/ha (Diabrotica balteata) was 100%, the pest or weed control at 100 g/ha (Spodoptera frugiperda) was 100% and the pest or weed control at 500 g/ha (Nezara viridula) was 100%.

With `CCS(=O)(=O)c1c(-c2nc3cc4c(cc3n2C)OC(F)(F)C(F)(F)O4)nc(-c2cccc(F)c2)n1C` [Example I-14, 2-[5-(Ethylsulfonyl)-2-(3-fluorophenyl)-1-methyl-1H-imidazol-4-yl]-6,6,7,7-tetrafluoro-1-methyl-6,7-dihydro-1H-[1,4]dioxino[2,3-f]benzimidazole] the pest or weed control at 100 g/ha (Diabrotica balteata) was 100%, the pest or weed control at 100 g/ha (Spodoptera frugiperda) was 100% and the pest or weed control at 500 g/ha (Nezara viridula) was 90%.

Molecule `CCS(=O)(=O)c1c(-c2nc3cc4c(cc3n2C)OC(F)(F)C(F)(F)O4)nc(-c2ccc(C3CC3)nc2)n1C` [Example I-18, 2-[2-(6-Cyclopropylpyridin-3-yl)-5-(ethylsulfonyl)-1-methyl-1H-imidazol-4-yl]-6,6,7,7-tetrafluoro-1-methyl-6,7-dihydro-1H-[1,4]dioxino[2,3-f]benzimidazole] has a pest or weed control at 100 g/ha (Diabrotica balteata) of 100%, a pest or weed control at 100 g/ha (Spodoptera frugiperda) of 100% and a pest or weed control at 500 g/ha (Nezara viridula) of 100%.

Molecule `CCS(=O)(=O)c1c(-c2nc3cc4c(cc3n2C)OC(F)(F)C(F)(F)O4)nc(-c2ccc(Br)cc2)n1C` [Example I-10, 2-[2-(4-Bromophenyl)-5-(ethylsulfonyl)-1-methyl-1H-imidazol-4-yl]-6,6,7,7-tetrafluoro-1-methyl-6,7-dihydro-1H-[1,4]dioxino[2,3-f]benzimidazole] has a pest or weed control at 100 g/ha (Diabrotica balteata) of 100%, a pest or weed control at 100 g/ha (Spodoptera frugiperda) of 100% and a pest or weed control at 500 g/ha (Nezara viridula) of 100%.

In the case of `CCS(=O)(=O)c1c(-c2nc3cc4c(cc3n2C)OC(F)(F)C(F)(F)O4)nc(-c2ccccc2)n1C` [Example I-16, 2-[5-(Ethylsulfonyl)-1-methyl-2-phenyl-1H-imidazol-4-yl]-6,6,7,7-tetrafluoro-1-methyl-6,7-dihydro-1H-[1,4]dioxino[2,3-f]benzimidazole], the pest or weed control at 100 g/ha (Diabrotica balteata) is reported as 100%, the efficacy in % (Myzus persicae) is reported as 90% and the pest or weed control at 100 g/ha (Spodoptera frugiperda) is reported as 100%. The pest or weed control at 500 g/ha (Nezara viridula) was 100%.

For `CCS(=O)(=O)c1c(-c2nc3cc4c(cc3n2C)OC(F)(F)C(F)(F)O4)nc(-c2ccc(Cl)s2)n1C` [Example I-19, 2-[2-(5-Chloro-2-thienyl)-5-(ethylsulfonyl)-1-methyl-1H-imidazol-4-yl]-6,6,7,7-tetrafluoro-1-methyl-6,7-dihydro-1H-[1,4]dioxino[2,3-f]benzimidazole], the pest or weed control at 100 g/ha (Spodoptera frugiperda) was 100% and the pest or weed control at 500 g/ha (Nezara viridula) was 100%.

Molecule `CCS(=N)(=O)c1c(-c2nc3cc4c(cc3n2C)OC(F)(F)C(F)(F)O4)nc(-c2ccc(F)cc2)n1C` (stereo not shown) [Example I-38] has a pest or weed control at 100 g/ha (Diabrotica balteata) of 100%, an efficacy in % (Myzus persicae) of 90% and a pest or weed control at 100 g/ha (Spodoptera frugiperda) of 100%. The “nematicidal efficacy in %” value (Meloidogyne incognita) was 100% and the pest or weed control at 500 g/ha (Nezara viridula) was 90%.

With `CCS(=O)(=O)c1c(-c2nc3cc4c(cc3n2C)OC(F)(F)C(F)(F)O4)nc(-c2ccc(Cl)cc2)n1C` [Example I-4, 2-[2-(4-Chlorophenyl)-5-(ethylsulfonyl)-1-methyl-1H-imidazol-4-yl]-6,6,7,7-tetrafluoro-1-methyl-6,7-dihydro-1H-[1,4]dioxino[2,3-f]benzimidazole] the pest or weed control at 100 g/ha (Diabrotica balteata) was 80%, the pest or weed control at 100 g/ha (Spodoptera frugiperda) was 100% and the “nematicidal efficacy in %” value (Meloidogyne incognita) was 90%.

In the case of `CCS(=N)(=O)c1c(-c2nc3cc4c(cc3n2C)OC(F)(F)C(F)(F)O4)nc(-c2ccc(C(F)(F)F)cc2)n1C` (stereo not shown) [Example I-37], the pest or weed control at 100 g/ha (Diabrotica balteata) is reported as 80%, the pest or weed control at 100 g/ha (Spodoptera frugiperda) is reported as 100% and the “nematicidal efficacy in %” value (Meloidogyne incognita) is reported as 90%.

Work on `CCS(=N)(=O)c1c(-c2nc3cc4c(cc3n2C)OC(F)(F)C(F)(F)O4)nc(-c2ccc(Cl)cc2)n1C` (racemic) [Example I-34, rac-2-[2-(4-Chlorophenyl)-5-(ethylsulfonimidoyl)-1-methyl-1H-imidazol-4-yl]-6,6,7,7-tetrafluoro-1-methyl-6,7-dihydro-1H-[1,4]dioxino[2,3-f]benzimidazole] yielded a pest or weed control at 100 g/ha (Diabrotica balteata) of 100%, an efficacy in % (Myzus persicae) of 90% and a pest or weed control at 100 g/ha (Spodoptera frugiperda) of 100%. For the same molecule, the “nematicidal efficacy in %” value (Meloidogyne incognita) was 90%.

Molecule `CCS(=O)(=O)c1c(-c2nc3cc4c(cc3n2C)OC(F)(F)C(F)(F)O4)nc(-c2cccc(C3(C#N)CC3)c2)n1C` [Example I-36] has a pest or weed control at 100 g/ha (Diabrotica balteata) of 100%, a pest or weed control at 100 g/ha (Spodoptera frugiperda) of 100% and a pest or weed control at 500 g/ha (Nezara viridula) of 90%.
